Measured values as given in US11965039B2, “Compstatin analogues and their medical uses” (priority 2018, dated 2024).
Positions of bridges follow the written chain, without caps; N, C: chain ends. Non-standard residues stand in square brackets, D forms with d. Residues, ends and D or L forms follow the SMILES beside them. Trp(1-Me) = Cn1cc(C[C@H](N)C(=O)O)c2ccccc21; 2Nal = N[C@@H](Cc1ccc2ccccc2c1)C(=O)O; Sar = CNCC(=O)O

Key:
[1] = Solubility test at 10 mg/mL (visual inspection and light scattering); format: physicochemical; conditions: for Solubility, Condition 1: Acetate pH 4; for Solubility, Condition 2: Acetate pH 5; for Solubility, Condition 3: Phosphate pH 6; for Solubility, Condition 4: Phosphate pH 7; for Solubility, Condition 5: Phosphate pH 7.5
[2] = tested on: classical complement pathway; assay: In vitro haemolysis assay (inhibition of classical complement pathway); format: cell-based, human; conditions: human serum, sensitized sheep red blood cells; Table 3, given as upper bounds; read-out: IC50, inhibition of hemolysis
Summary of the method: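 Compound dilutions preincubated 15 min at room temperature with diluted human serum (titrated per batch for 70-90% maximal haemolysis), then antibody-sensitized sheep RBC (10^7/well) added for 30 min at 37 °C in Tris/casein buffer, pH 7.4. Stopped with EDTA; haemolysis read at 405 nm; IC50 by 4PL fit.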

Compound | Solubility, Condition 1 [1] | Solubility, Condition 2 [1] | Solubility, Condition 3 [1] | Solubility, Condition 4 [1] | Solubility, Condition 5 [1] | IC50 [2]
CC[C@H](C)[C@H](NC(=O)[C@H](C)NC(=O)[C@H](CO)NC(=O)CNC(=O)[C@H](CCC(=O)O)NC(C)=O)C(=O)N[C@H]1CSSC[C@@H](C(=O)N(C)CC(=O)N[C@@H](CCC(=O)O)C(=O)NCC(=O)N[C@@H](CCC(=O)O)C(N)=O)NC(=O)[C@H](CCCNC(=N)N)NC(=O)[C@H](Cc2c[nH]cn2)NC(=O)[C@H](CCC(=O)O)NC(=O)CNC(=O)[C@H](Cc2c[nH]c3ccccc23)NC(=O)[C@H](CC(=O)O)NC(=O)[C@H](CCC(N)=O)NC(=O)[C@H](Cc2c[nH]c3ccccc23)NC(=O)[C@H]([C@@H](C)CC)NC1=O [Compound 44] (Ac-EGSAICIWQDWGEHRC[Sar]EGE-NH2; disulfide 6-16) | − (“−” denotes lack of solubility at the given condition, as UV absorbance at 340 nm exceeds 0.1 AU and/or it is visibly turbid or contains particles) | − (“−” denotes lack of solubility at the given condition, as UV absorbance at 340 nm exceeds 0.1 AU and/or it is visibly turbid or contains particles) | + (“+” denotes solubility at the given condition, as determined by UV absorbance being less than 0.1 AU at 340 nm and the sample being clear when manually inspected) | + (“+” denotes solubility at the given condition, as determined by UV absorbance being less than 0.1 AU at 340 nm and the sample being clear when manually inspected) | + (“+” denotes solubility at the given condition, as determined by UV absorbance being less than 0.1 AU at 340 nm and the sample being clear when manually inspected) | < 250 nM
CC[C@H](C)[C@@H]1NC(=O)[C@@H](NC(=O)[C@H](Cc2ccccc2)NC(=O)[C@H](C)NC(=O)[C@H](CO)NC(=O)CNC(=O)[C@H](CCC(=O)O)NC(C)=O)CSSC[C@@H](C(=O)N(C)CC(=O)N[C@@H](CCC(=O)O)C(N)=O)NC(=O)[C@H](CCCNC(=N)N)NC(=O)[C@H](Cc2c[nH]cn2)NC(=O)[C@H](CCC(=O)O)NC(=O)CNC(=O)[C@H](Cc2c[nH]c3ccccc23)NC(=O)[C@H](CC(=O)O)NC(=O)[C@H](CCC(N)=O)NC(=O)[C@H](Cc2c[nH]c3ccccc23)NC1=O [Compound 45] (Ac-EGSAFCIWQDWGEHRC[Sar]E-NH2; disulfide 6-16) | − (“−” denotes lack of solubility at the given condition, as UV absorbance at 340 nm exceeds 0.1 AU and/or it is visibly turbid or contains particles) | + (“+” denotes solubility at the given condition, as determined by UV absorbance being less than 0.1 AU at 340 nm and the sample being clear when manually inspected) | + (“+” denotes solubility at the given condition, as determined by UV absorbance being less than 0.1 AU at 340 nm and the sample being clear when manually inspected) | + (“+” denotes solubility at the given condition, as determined by UV absorbance being less than 0.1 AU at 340 nm and the sample being clear when manually inspected) | + (“+” denotes solubility at the given condition, as determined by UV absorbance being less than 0.1 AU at 340 nm and the sample being clear when manually inspected) | < 100 nM
CC[C@H](C)[C@H](NC(=O)[C@H](C)NC(=O)[C@H](CO)NC(=O)CNC(=O)[C@H](CCC(=O)O)NC(C)=O)C(=O)N[C@H]1CSSC[C@@H](C(=O)N(C)CC(=O)N[C@@H](CCC(=O)O)C(N)=O)NC(=O)[C@H](CCCNC(=N)N)NC(=O)[C@H](Cc2c[nH]cn2)NC(=O)[C@H](CCC(=O)O)NC(=O)CNC(=O)[C@H](Cc2c[nH]c3ccccc23)NC(=O)[C@H](CC(=O)O)NC(=O)[C@H](CCC(N)=O)NC(=O)[C@H](Cc2cn(C)c3ccccc23)NC(=O)[C@H]([C@@H](C)CC)NC1=O [Compound 49] (Ac-EGSAICI[Trp(1-Me)]QDWGEHRC[Sar]E-NH2; disulfide 6-16) | − (“−” denotes lack of solubility at the given condition, as UV absorbance at 340 nm exceeds 0.1 AU and/or it is visibly turbid or contains particles) | − (“−” denotes lack of solubility at the given condition, as UV absorbance at 340 nm exceeds 0.1 AU and/or it is visibly turbid or contains particles) | + (“+” denotes solubility at the given condition, as determined by UV absorbance being less than 0.1 AU at 340 nm and the sample being clear when manually inspected) | + (“+” denotes solubility at the given condition, as determined by UV absorbance being less than 0.1 AU at 340 nm and the sample being clear when manually inspected) | + (“+” denotes solubility at the given condition, as determined by UV absorbance being less than 0.1 AU at 340 nm and the sample being clear when manually inspected) | < 100 nM
CC[C@H](C)[C@H](NC(=O)[C@H](C)NC(=O)[C@H](CO)NC(=O)CNC(=O)[C@H](CCC(=O)O)NC(C)=O)C(=O)N[C@H]1CSSC[C@@H](C(=O)N(C)CC(=O)N[C@@H](CCC(=O)O)C(N)=O)NC(=O)[C@H](CCCNC(=N)N)NC(=O)[C@H](Cc2c[nH]cn2)NC(=O)[C@H](CCC(=O)O)NC(=O)CNC(=O)[C@H](Cc2c[nH]c3ccccc23)NC(=O)[C@H](CC(=O)O)NC(=O)[C@H](CCC(N)=O)NC(=O)[C@H](Cc2ccc3ccccc3c2)NC(=O)[C@H]([C@@H](C)CC)NC1=O [Compound 50] (Ac-EGSAICI[2Nal]QDWGEHRC[Sar]E-NH2; disulfide 6-16) | − (“−” denotes lack of solubility at the given condition, as UV absorbance at 340 nm exceeds 0.1 AU and/or it is visibly turbid or contains particles) | − (“−” denotes lack of solubility at the given condition, as UV absorbance at 340 nm exceeds 0.1 AU and/or it is visibly turbid or contains particles) | + (“+” denotes solubility at the given condition, as determined by UV absorbance being less than 0.1 AU at 340 nm and the sample being clear when manually inspected) | + (“+” denotes solubility at the given condition, as determined by UV absorbance being less than 0.1 AU at 340 nm and the sample being clear when manually inspected) | + (“+” denotes solubility at the given condition, as determined by UV absorbance being less than 0.1 AU at 340 nm and the sample being clear when manually inspected) | < 100 nM
CC[C@H](C)[C@H](NC(C)=O)C(=O)N[C@H]1CSSC[C@@H](C(=O)N[C@H](C(=O)NCC(=O)N[C@@H](C)C(=O)N[C@@H](CCC(=O)O)C(=O)N[C@@H](CO)C(N)=O)[C@@H](C)O)NC(=O)[C@H](CCCNC(=N)N)NC(=O)[C@H](Cc2c[nH]cn2)NC(=O)[C@H](CCC(=O)O)NC(=O)CNC(=O)[C@H](Cc2c[nH]c3ccccc23)NC(=O)[C@H](CC(=O)O)NC(=O)[C@H](CCC(N)=O)NC(=O)[C@H](Cc2cn(C)c3ccccc23)NC(=O)[C@H]([C@@H](C)CC)NC1=O [Compound 51] (Ac-ICI[Trp(1-Me)]QDWGEHRCTGAES-NH2; disulfide 2-12) | − (“−” denotes lack of solubility at the given condition, as UV absorbance at 340 nm exceeds 0.1 AU and/or it is visibly turbid or contains particles) | − (“−” denotes lack of solubility at the given condition, as UV absorbance at 340 nm exceeds 0.1 AU and/or it is visibly turbid or contains particles) | + (“+” denotes solubility at the given condition, as determined by UV absorbance being less than 0.1 AU at 340 nm and the sample being clear when manually inspected) | + (“+” denotes solubility at the given condition, as determined by UV absorbance being less than 0.1 AU at 340 nm and the sample being clear when manually inspected) | + (“+” denotes solubility at the given condition, as determined by UV absorbance being less than 0.1 AU at 340 nm and the sample being clear when manually inspected) | < 100 nM
